Our source for the IC50 values is patent US6855730B2, “3-methylidenyl-2-indolinone modulators of protein kinase” (Sugen, Inc., priority 1998, dated 2005).

For the assay, the target named is T1, chimeric receptor having the extra-cellular domain of EGF-R and the intra-cellular domain of Her2 (Homo sapiens, UniProt P04626).
T1 construct: fused on or other part: the same chimera
T1 sequence (P04626 676-1255 limits assumed, change not shown): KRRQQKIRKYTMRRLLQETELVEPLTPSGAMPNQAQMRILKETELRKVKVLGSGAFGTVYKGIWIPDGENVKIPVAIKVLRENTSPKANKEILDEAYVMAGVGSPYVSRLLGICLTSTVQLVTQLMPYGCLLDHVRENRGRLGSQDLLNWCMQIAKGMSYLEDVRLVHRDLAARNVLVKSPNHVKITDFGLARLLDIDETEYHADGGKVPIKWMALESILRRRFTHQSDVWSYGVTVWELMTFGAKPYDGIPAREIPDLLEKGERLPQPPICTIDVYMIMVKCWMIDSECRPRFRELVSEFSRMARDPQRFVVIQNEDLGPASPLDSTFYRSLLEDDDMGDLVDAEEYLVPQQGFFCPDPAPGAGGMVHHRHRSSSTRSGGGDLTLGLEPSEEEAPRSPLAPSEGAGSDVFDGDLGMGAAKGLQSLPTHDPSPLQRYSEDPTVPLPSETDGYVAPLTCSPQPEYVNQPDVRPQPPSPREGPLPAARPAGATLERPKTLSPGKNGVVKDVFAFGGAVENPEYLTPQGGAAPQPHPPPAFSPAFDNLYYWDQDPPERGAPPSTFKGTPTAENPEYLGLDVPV
The experiment in a line: EGF-induced Her2-driven BrdU incorporation. It counts as cell-based. As to conditions: read-out: BrdU HER 2 driven IC50. As to the method:
The cellular/catalytic assays described herein are performed in an ELISA format. The general procedure is as follows: a compound is introduced to cells expressing the test kinase, either naturally or recombinantly, for a selected period of time after which, if the test kinase is a receptor, a ligand known to activate the receptor is added. The cells are lysed and the lysate is transferred to the wells of an ELISA plate previously coated with a specific antibody recognizing the substrate of the enzymatic phosphorylation reaction. Non-substrate components of the cell lysate are washed away and the amount of phosphorylation on the substrate is detected with an antibody specifically recognizing phosphotyrosine compared with control cells that were not contacted with a test compound. The cellular/biologic assays described herein measure the amount of DNA made in response to activation of a test kinase, which is a general measure of a proliferative response. The general procedure for this assay is as follows: a compound is introduced to cells expressing the test kinase, either naturally or recombinantly, for a selected period of time after which, if the test kinase is a receptor, a ligand known to activate the receptor is added. After incubation at least overnight, a DNA labeling reagent such as Bromodeoxyuridine (BrdU) or 3H-thymidine is added. The amount of labeled DNA is detected with either an anti-BrdU antibody or by measuring radioactivity and is compared to control cells not contacted with a test compound.
EGF-Induced Her2-Driven BrdU Incorporation
Protocol • (1) Cells-are seeded at 8000 cells/well in DMEM, 10% CS, 2mM Gln in a 96-well plate. Cells are incubated overnight at 37° C. in 5% CO2. • (2) After 24 hours, the cells are washed with PBS, and then are serum starved in serum free medium (0% CS DMEM with 0.1% BSA) for 24 hours. • (3) On day 3, ligand (EGF=2 nM, prepared in DMEM with 0.1% BSA) and test compounds are added to the cells simultaneously. The negative control wells receive serum free DMEM with 0.1% BSA only, the positive control cells receive the ligand (EGF) but no test compound. Test compounds are prepared in serum free DMEM with ligand in a 96 well plate, and serially diluted for 7 test concentrations. • (4) After 20 hours of ligand activation, diluted BrdU labeling reagent (1:100 in DMEM, 0.1% BSA) is added and the cells are incubated with BrdU (final concentration=10 μM) for 1.5 hours. • (5) After incubation with labeling reagent, the medium is removed by decanting and tapping the inverted plate on a paper towel. FixDenat solution is added (50 μl/well) and the plates are incubated at room temperature for 45 minutes on a plate shaker. • (6) The FixDenat solution is thoroughly removed by decanting and tapping the inverted plate on a paper towel. Milk is added (5% dehydrated milk in PBS, 200 μ/well) as a blocking solution and the plate is incubated for 30 minutes at room temperature on a plate shaker. • (7) The blocking solution is removed by decanting and the wells are washed once with PBS. Anti-BrdU-POD solution (1:100 dilution in PBS, 1% BSA) is added (100 μl/well) and the plate is incubated for 90 minutes at room temperature on a plate shaker. • (8) The antibody conjugate is thoroughly removed by decanting and rinsing the wells 5 times with PBS, and the plate is dried by inverting and tapping on a paper towel. • (9) TMB substrate solution is added (100 μl/well) and incubated for 20 minutes at room temperature on a plate shaker until color development is sufficient for photometric detection. • (10) The absorbance of the samples are measured at 410 nm (in “dual wavelength” mode with a filter reading at 490 nm, as a reference wavelength) on a Dynatech ELISA plate reader.
In general terms: Dividing cells build labelled thymidine or BrdU into new DNA.
On to `COc1ccc(/C=C2/C(=O)Nc3ccc(Cl)cc32)cc1-c1cccs1` [Example 59, 5-chloro-3-(4-Methoxy-3-thiophen-2-ylbenzylidene)-1,3-dihydroindol-2-one], for which the IC50 (commonly the concentration that inhibits the measured activity by half) came out at 14.4 µM.

As for `COc1ccc(/C=C2/C(=O)Nc3ccccc32)cc1C(C)C` [Example 7, 3-(3-Isopropyl-4-methoxybenzylidene)-1,3-dihydroindol-2-one], the IC50 was 16.5 µM.

As for `COc1cc(C)c(/C=C2/C(=O)Nc3ncccc32)cc1C(C)C` [Example 45, 3-(5-Isopropyl-4-methoxy-2-methylbenzylidene)-1,3-dihydro-pyrrolo[2,3-b]pyridin-2-one], the IC50 was more than 50 µM.

For the compound `CC(=O)Nc1ccc2c(c1)NC(=O)/C2=C/c1ccc(OCCN2CCOCC2)c(-c2cccs2)c1` [Example 40, N-{3-[4-(2-Morpholin-4-ylethoxy)-3-thiophen-2-ylbenzylidene]-2-oxo-2,3-dihydro-1H-indol-6-yl}-acetamide], the IC50 was 22.6 µM.

As to `COc1cc(/C=C2/C(=O)Nc3ccccc32)c(-c2cccs2)cc1OC` [Example 39, 3-(4,5-Dimethoxy-2-thiophen-2-ylbenzylidene)-1,3-dihydroindol-2-one], the IC50 came to 5.4 µM.

Consider `CC(=O)Nc1ccc2c(c1)NC(=O)/C2=C/c1ccc(OCCN2CCOCC2)c(-c2ccsc2)c1` [Example 50, N-{3-[4-(2-Morpholin-4-ylethoxy)-3-thiophen-3-ylbenzylidene]-2-oxo-2,3-dihydro-1H-indol-6-yl}-acetamide], for which the IC50 worked out at 31.1 µM.

Consider `CC1(C)CCc2cc(/C=C3/C(=O)Nc4ccc(F)cc43)ccc2O1` [Example 23, 3-(2,2-Dimethylchroman-6-ylmethylene)-5-fluoro-1,3-dihydroindol-2-one], for which the IC50 is 27.1 µM.

Regarding `COc1c(C(C)C)cc(/C=C2/C(=O)Nc3cc(NC(C)=O)ccc32)cc1C(C)C` [Example 3, N-[3-(3,5-Diisopropyl-4-methoxybenzylidene)-2-oxo-2,3-dihydro-1H-indol-6-yl]-acetamide], the IC50 stood at 9.1 µM.

Take `COc1ccc(/C=C2/C(=O)Nc3cc(NC(C)=O)ccc32)cc1-c1cccs1` [Example 31, N-[3-(4-Methoxy-3-thiophen-2-ylbenzylidene)-2-oxo-2,3-dihydro-1H-indol-6-yl]-acetamide]: the IC50 was 28.7 µM.

As for `COc1ccc(/C=C2/C(=O)Nc3ncccc32)cc1C1CCCC1` [Example 47, 3-(3-Cyclopentyl-4-methoxybenzylidene)-1,3-dihydropyrrolo[2,3-b]pyridin-2-one], the IC50 was more than 50 µM.

For `COc1ccc(/C=C2/C(=O)Nc3ccc(Br)cc32)cc1-c1ccccc1` [Example 13, 5-Bromo-3-(6-methoxybiphenyl-3-ylmethylene)-1,3-dihydroindol-2-one], the IC50 is 9 µM.
